Data reported in US8791303B2, “Herbicides” (Syngenta Limited, priority 2009, dated 2014).

Key:
[1] = test system: Lolium perenne (LOLPE); assay: Example A glasshouse herbicide test, post-emergence, LOLPE; format: in vivo; details: Lolium perenne, post-emergence, 312 h, Rate 250 g/ha, sprayed after 8 days cultivation, evaluated after 13 days, read-out: Post-Emergence Activity LOLPE (100=total damage to plant; 0=no damage to plant)
Description: (§1) Seeds of a variety of test species are sown in standard soil in pots. After cultivation for one day (pre-emergence) or after 8 days cultivation (post-emergence) under controlled conditions in a glasshouse (at 24/16° C., day/night; 14 hours light; 65% humidity), the plants are sprayed with an aqueous spray solution derived from the formulation of the technical active ingredient in acetone/water (50:50) solution containing 0.5% Tween 20 (polyoxyethelyene sorbitan monolaurate, CAS RN 9005-64-5).
(§2) The test plants are then grown in a glasshouse under controlled conditions in a glasshouse (at 24/16° C., day/night; 14 hours light; 65% humidity) and watered twice daily. After 13 days for pre and post-emergence, the test is evaluated (100=total damage to plant; 0=no damage to plant).
(§3) Lolium perenne (LOLPE), Alopecurus myosuroides (ALOMY), Echinochloa crus-galli (ECHCG), Avena fatua (AVEFA)

[2] = test system: Alopecurus myosuroides (ALOMY); assay: Example A glasshouse herbicide test, post-emergence, ALOMY; format: in vivo; details: Alopecurus myosuroides, post-emergence, 312 h, Rate 250 g/ha, sprayed after 8 days cultivation, evaluated after 13 days, read-out: Post-Emergence Activity ALOMY (100=total damage to plant; 0=no damage to plant)
Description: as §1, §2, §3

[3] = test system: Echinochloa crus-galli (ECHCG); assay: Example A glasshouse herbicide test, post-emergence, ECHCG; format: in vivo; details: Echinochloa crus-galli, post-emergence, 312 h, Rate 250 g/ha, sprayed after 8 days cultivation, evaluated after 13 days, read-out: Post-Emergence Activity ECHCG (100=total damage to plant; 0=no damage to plant)
Description: as §1, §2, §3

[4] = test system: Avena fatua (AVEFA); assay: Example A glasshouse herbicide test, post-emergence, AVEFA; format: in vivo; details: Avena fatua, post-emergence, 312 h, Rate 250 g/ha, sprayed after 8 days cultivation, evaluated after 13 days, read-out: Post-Emergence Activity AVEFA (100=total damage to plant; 0=no damage to plant)
Description: as §1, §2, §3

[5] = test system: Lolium perenne (LOLPE); assay: Example A glasshouse herbicide test, pre-emergence, LOLPE; format: in vivo; details: Lolium perenne, pre-emergence, 312 h, Rate 250 g/ha, sprayed after cultivation for one day, evaluated after 13 days, read-out: Pre-Emergence Activity LOLPE (100=total damage to plant; 0=no damage to plant)
Description: as §1, §2, §3

[6] = test system: Alopecurus myosuroides (ALOMY); assay: Example A glasshouse herbicide test, pre-emergence, ALOMY; format: in vivo; details: Alopecurus myosuroides, pre-emergence, 312 h, Rate 250 g/ha, sprayed after cultivation for one day, evaluated after 13 days, read-out: Pre-Emergence Activity ALOMY (100=total damage to plant; 0=no damage to plant)
Description: as §1, §2, §3

[7] = test system: Echinochloa crus-galli (ECHCG); assay: Example A glasshouse herbicide test, pre-emergence, ECHCG; format: in vivo; details: Echinochloa crus-galli, pre-emergence, 312 h, Rate 250 g/ha, sprayed after cultivation for one day, evaluated after 13 days, read-out: Pre-Emergence Activity ECHCG (100=total damage to plant; 0=no damage to plant)
Description: as §1, §2, §3

[8] = test system: Avena fatua (AVEFA); assay: Example A glasshouse herbicide test, pre-emergence, AVEFA; format: in vivo; details: Avena fatua, pre-emergence, 312 h, Rate 250 g/ha, sprayed after cultivation for one day, evaluated after 13 days, read-out: Pre-Emergence Activity AVEFA (100=total damage to plant; 0=no damage to plant)
Description: as §1, §2, §3

[9] = test system: Winter Wheat variety 'Hereward'; assay: Example B crop damage test, post-emergence, unsafened wheat; format: in vivo; details: Rate 250 g/ha; post-emergence spray after 8 days cultivation; no safener; evaluated after 13 days
Description: Seeds of the Winter Wheat variety ‘Hereward’ were sown in standard soil in pots. After 8 days cultivation under controlled conditions in a glasshouse (at 24/16° C., day/night; 14 hours light; 65% humidity), the plants were sprayed post-emergence with an aqueous spray solution derived from the formulation of the technical active ingredient in acetone/water (50:50) solution containing 0.5% Tween 20 (polyoxyethelyene sorbitan monolaurate, CAS RN 9005-64-5).
(§4) The test plants were then grown in a glasshouse under controlled conditions in a glasshouse (at 24/16° C., day/night; 14 hours light; 65% humidity) and watered twice daily. After 13 days for pre and post-emergence, the test was evaluated (100=total damage to plant; 0=no damage to plant).

[10] = test system: Winter Wheat variety 'Hereward'; assay: Example B crop damage test, post-emergence, wheat seed treated with safener cloquintocet mexyl; format: in vivo; details: Rate 250 g/ha; post-emergence spray 8 days after sowing; seed treated with cloquintocet mexyl 0.5 g/kg dry seed; evaluated after 13 days
Description: Seeds of the Winter Wheat variety ‘Hereward’ were seed treated with a wettable powder formulation of the cereal herbicide safener, cloquintocet mexyl, at a rate of 0.5 grams per kilogram of dry seed prior to the initiation of glasshouse testing. One seed was sown per 1.5 inch plastic pot into a sandy loam soil at a depth of 1 cm, 8 days prior to application of the test compounds and was watered and grown under controlled conditions in a glasshouse (at 24/16° C., day/night; 14 hours light; 65% humidity). The plants were sprayed post-emergence with an aqueous spray solution derived from the formulation of the technical active ingredient in acetone/water (50:50) solution containing 0.5% Tween 20 (polyoxyethelyene sorbitan monolaurate, CAS RN 9005-64-5).
as §4

Structure (SMILES)	melting point [°C]	pest or weed control at 250 g/ha [1] [%]	pest or weed control at 250 g/ha [2] [%]	pest or weed control at 250 g/ha [3] [%]	pest or weed control at 250 g/ha [4] [%]	pest or weed control at 250 g/ha [5] [%]	pest or weed control at 250 g/ha [6] [%]	pest or weed control at 250 g/ha [7] [%]	pest or weed control at 250 g/ha [8] [%]	Winter Wheat (Hereward) damage (100=total damage to plant; 0=no damage to plant) [9]	Winter Wheat (Hereward) + cloquintocet mexyl damage (100=total damage to plant; 0=no damage to plant) [10]
Cc1cc(C)c(C2C(=O)CC(Cc3ccc(F)cc3)C2=O)c(C)c1 (stereo not drawn) [Compound A12]	183.1 to 183.2	–	–	–	–	–	–	–	–	–	–
Cc1cc(C)c(C2C(=O)CC(Cc3cccc(Oc4ccccc4)c3)C2=O)c(C)c1 (stereo not drawn) [Compound A13]	192 to 194.8	20	30	20	30	40	10	20	0	–	–
Cc1cc(C)c(C2C(=O)CC(Cc3ccc(-c4csnn4)cc3)C2=O)c(C)c1 (stereo not drawn) [Compound A16]	225 to 232	30	20	50	50	70	10	80	30	–	–
Cc1cc(C)c(C2C(=O)C/C(=C\C3CCCC(C)C3)C2=O)c(C)c1 (stereo not drawn) [Compound A30]	–	60	60	80	70	100	80	100	70	50	0
Cc1cc(C)c(C2C(=O)C/C(=C\C3CCCC4CCCCC34)C2=O)c(C)c1 (stereo not drawn) [Compound A31]	–	70	20	80	20	90	40	90	20	20	0
Cc1cc(C)c(C2C(=O)CC(CC3CCCC(C)C3)C2=O)c(C)c1 (stereo not drawn) [Compound A32]	–	100	70	100	90	90	70	100	50	30	0
Cc1cc(C)c(C2C(=O)CC(CC3CCC(C)CC3)C2=O)c(C)c1 (stereo not drawn) [Compound A33]	–	100	30	60	70	0	30	100	50	40	0
Cc1cc(C)c(C2C(=O)CC(CC3CC(C)CCC3C(C)C)C2=O)c(C)c1 (stereo not drawn) [Compound A34]	–	30	20	10	10	0	10	60	0	20	10
Cc1cc(C)c(C2C(=O)CC(CC3CCCCCC3)C2=O)c(C)c1 (stereo not drawn) [Compound A35]	–	80	50	80	20	30	50	100	50	20	0
Cc1cc(C)c(C2C(=O)CC(CC3CCCC4CCCCC43)C2=O)c(C)c1 (stereo not drawn) [Compound A36]	–	70	40	70	90	10	70	70	50	20	0
COC1CCC(CC2CC(=O)C(c3c(C)cc(C)cc3C)C2=O)CC1 (stereo not drawn) [Compound A38, 4-(4-Methoxy-cyclohexylmethyl)-2-(2,4,6-trimethyl-phenyl)-cyclopentane-1,3-dione]	–	100	100	100	100	100	90	100	60	70	50
Cc1cc(C)c(C2=C(OC(=O)C(C)(C)C)C/C(=C\C3CCCCC3)C2=O)c(C)c1 [Compound B1]	–	70	50	30	10	80	70	100	20	10	0
Cc1cc(C)c(C2=C(OC(=O)C(C)(C)C)CC(CC3CCCCC3)C2=O)c(C)c1 (stereo not drawn) [Compound B2]	–	90	80	60	80	100	30	100	0	70	0
Cc1cc(C)c(C2=C(OC(=O)C(C)(C)C)C(CC3CCC(=O)CC3)CC2=O)c(C)c1 (stereo not drawn) [Compound B3]	–	90	70	90	90	90	70	50	50	40	30
